Measurements: ChEMBL document CHEMBL6153135, “Rational Design of a Potent, Selective, and Metabolically Stable CDK9 Inhibitor to Counteract Osimertinib Resistance through Mcl-1 Suppression and Enhanced BRD4 Co-Targeting” (J Med Chem, 2025)
Calls of active or inactive are those of the source. The rule behind the calls is not given here.

Columns and labels:
[1] = target: Homeodomain-interacting protein kinase 3 (Homo sapiens) (UniProt Q9H422); experiment: Inhibition of HIPK3 (unknown origin) at 100 nM preincubated for 10 mins followed by substrate/ATP measured after 60 mins by ADP-Glo assay relative to control; details: time 70.0 min
Sequence of Homeodomain-interacting protein kinase 3 (Homo sapiens) (Q9H422 whole entry, looked up): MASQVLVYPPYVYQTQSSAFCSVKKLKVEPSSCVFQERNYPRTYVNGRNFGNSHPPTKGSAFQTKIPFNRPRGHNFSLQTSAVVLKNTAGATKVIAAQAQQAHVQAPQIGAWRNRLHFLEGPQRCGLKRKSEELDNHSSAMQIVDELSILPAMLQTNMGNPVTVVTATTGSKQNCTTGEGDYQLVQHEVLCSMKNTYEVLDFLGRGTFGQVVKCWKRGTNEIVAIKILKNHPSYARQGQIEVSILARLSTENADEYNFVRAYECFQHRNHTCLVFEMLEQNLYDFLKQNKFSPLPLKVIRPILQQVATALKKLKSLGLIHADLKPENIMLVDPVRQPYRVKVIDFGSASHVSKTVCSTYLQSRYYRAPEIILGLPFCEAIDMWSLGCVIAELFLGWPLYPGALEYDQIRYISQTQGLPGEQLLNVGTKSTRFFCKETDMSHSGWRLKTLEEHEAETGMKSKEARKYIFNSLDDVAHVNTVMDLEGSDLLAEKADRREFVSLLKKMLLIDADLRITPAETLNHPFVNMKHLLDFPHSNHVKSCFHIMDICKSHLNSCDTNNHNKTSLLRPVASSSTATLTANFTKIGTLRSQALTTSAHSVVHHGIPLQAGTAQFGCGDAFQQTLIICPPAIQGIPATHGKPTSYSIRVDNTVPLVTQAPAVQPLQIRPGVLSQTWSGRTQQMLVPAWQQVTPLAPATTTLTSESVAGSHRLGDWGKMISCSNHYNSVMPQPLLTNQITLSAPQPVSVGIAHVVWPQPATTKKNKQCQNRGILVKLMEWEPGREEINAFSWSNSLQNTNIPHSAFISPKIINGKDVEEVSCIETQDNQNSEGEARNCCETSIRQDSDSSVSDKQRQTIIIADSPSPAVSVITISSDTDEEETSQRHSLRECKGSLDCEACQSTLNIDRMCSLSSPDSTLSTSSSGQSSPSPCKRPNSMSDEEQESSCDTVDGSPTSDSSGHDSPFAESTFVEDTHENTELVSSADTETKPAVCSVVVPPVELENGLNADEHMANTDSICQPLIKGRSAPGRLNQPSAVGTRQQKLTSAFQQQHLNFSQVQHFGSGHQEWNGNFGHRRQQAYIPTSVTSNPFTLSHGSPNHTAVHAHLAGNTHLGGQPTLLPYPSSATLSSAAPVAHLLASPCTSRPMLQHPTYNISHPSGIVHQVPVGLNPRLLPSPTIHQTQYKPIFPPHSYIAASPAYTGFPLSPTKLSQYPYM

[2] = Anti-proliferative activity against human Osimertinib-resistant HCC827 cells assessed as cell inhibition measured after 72 hrs by MTT assay; format: functional, cell-based
[3] = Tmax in BALB/c mouse at 15 mg/kg, po; format: ADME, organism-based; details: in vivo
[4] = Apparent volume of distribution in BALB/c mouse at 2 mg/kg, iv; format: ADME, organism-based; details: in vivo, read-out: Vz
[5] = Toxicity in BALB-c nude mouse xenografted with human NCI-H1975 cells assessed as pathological damage in lung at 15 mg/kg, iv administered on every two days by H and E staining based analysis; format: organism-based; details: in vivo
[6] = tested on: Lewis lung carcinoma cell line; experiment: Anti-proliferative activity against Lewis lung carcinoma cells assessed as cell inhibition measured after 72 hrs by MTT assay; format: functional, cell-based; details: Mus musculus
[7] = target: Cyclin-dependent kinase 9 (Homo sapiens) (UniProt P50750); experiment: Inhibition of CDK9 in human Osimertinib-resistant HCC827 cells assessed as decrease in Mcl-1 mRNA level in presence of JQ1 by RNA-Seq analysis; format: cell-based; details: Osimertinib-resistant HCC827 cell
Sequence of Cyclin-dependent kinase 9 (Homo sapiens) (P50750 whole entry): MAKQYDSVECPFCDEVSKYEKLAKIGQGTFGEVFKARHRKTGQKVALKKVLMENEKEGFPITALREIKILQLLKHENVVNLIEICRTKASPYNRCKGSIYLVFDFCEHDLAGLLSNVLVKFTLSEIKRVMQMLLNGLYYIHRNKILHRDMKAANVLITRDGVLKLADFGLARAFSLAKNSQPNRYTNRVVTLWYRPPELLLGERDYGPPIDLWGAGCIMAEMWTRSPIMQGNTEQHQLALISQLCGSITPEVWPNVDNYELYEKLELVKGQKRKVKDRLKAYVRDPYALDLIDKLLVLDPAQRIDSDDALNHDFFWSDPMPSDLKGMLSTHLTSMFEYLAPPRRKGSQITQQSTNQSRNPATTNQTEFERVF

[8] = tested on: Osimertinib-resistant HCC827 cell; experiment: Upregulation of c-Myc level in human Osimertinib-resistant HCC827 cells at 100 to 500 nM incubated for 12 hrs by Western blot analysis; format: functional, cell-based; details: dose 100-500 nM
[9] = tested on: Lung adenocarcinoma organoid; experiment: Anti-tumor activity against multidrug-resistant patient (#2422)-derived human Lung adenocarcinoma organoid assessed as inhibition of cell viability measured after 96 hrs; format: functional, tissue-based; details: Neoplasm
[10] = target: Cyclin-dependent kinase 9 (Homo sapiens) (UniProt P50750); experiment: Inhibition of CDK9 in human Osimertinib-resistant HCC827 cells assessed as decrease in Mcl-1 mRNA level by RNA-Seq analysis; format: cell-based; details: Osimertinib-resistant HCC827 cell
[11] = tested on: Lung adenocarcinoma organoid; experiment: Anti-tumor activity against patient (#2514)-derived human Lung adenocarcinoma organoid assessed as inhibition of cell viability measured after 96 hrs; format: functional, tissue-based; details: Neoplasm
[12] = tested on: Osimertinib-resistant HCC827 cell; experiment: Inhibition of stem cell multi-functionality signaling in human Osimertinib-resistant HCC827 cells by KEGG analysis; format: functional, cell-based
NCI-H1975 [13] = experiment: Antitumor activity against human NCI-H1975 cells xenografted in BALB-c nude mouse at 30 mg/kg, po administered on every two days relative to control; format: functional; details: NCI-H1975, 48 h, read-out: TGI
NCI-H1975 [14] = experiment: Anti-proliferative activity against human NCI-H1975 cells assessed as cell inhibition measured after 72 hrs in presence of 250 nM JQ1 by MTT assay; format: functional, cell-based; details: NCI-H1975, 72 h
[15] = Toxicity in BALB-c nude mouse xenografted with human NCI-H1975 cells assessed as pathological damage in heart at 15 mg/kg, iv administered on every two days by H and E staining based analysis; format: organism-based; details: in vivo
[16] = Metabolic stability in pig liver microsomes assessed as half life measured for 5 to 60 mins by LC-MS/MS analysis; format: ADME, Sus scrofa, Microsome; details: time 5-60 min
[17] = tested on: Osimertinib-resistant HCC827 cell; experiment: Inhibition of DNA replication in human Osimertinib-resistant HCC827 cells by KEGG analysis; format: functional, cell-based
[18] = Toxicity in BALB-c mouse xenografted with human NCI-H1975 cells assessed as decrease in body weight at 5 mg/kg, iv in presence of JQ1; format: organism-based; details: in vivo
[19] = Anti-proliferative activity against human Osimertinib-resistant HCC827 cells assessed as cell inhibition measured after 72 hrs in presence of 100 nM JQ1 by MTT assay; format: functional, cell-based
[20] = Anti-proliferative activity against human Osimertinib-resistant HCC827 cells assessed as cell inhibition measured after 72 hrs in presence of 250 nM JQ1 by MTT assay; format: functional, cell-based
[21] = target: Glycogen synthase kinase-3 alpha (Homo sapiens) (UniProt P49840); experiment: Inhibition of GSK3-alpha (unknown origin) at 100 nM preincubated for 10 mins followed by substrate/ATP measured after 60 mins by ADP-Glo assay relative to control; details: time 70.0 min
Sequence of Glycogen synthase kinase-3 alpha (Homo sapiens) (P49840 2-483 limits assumed): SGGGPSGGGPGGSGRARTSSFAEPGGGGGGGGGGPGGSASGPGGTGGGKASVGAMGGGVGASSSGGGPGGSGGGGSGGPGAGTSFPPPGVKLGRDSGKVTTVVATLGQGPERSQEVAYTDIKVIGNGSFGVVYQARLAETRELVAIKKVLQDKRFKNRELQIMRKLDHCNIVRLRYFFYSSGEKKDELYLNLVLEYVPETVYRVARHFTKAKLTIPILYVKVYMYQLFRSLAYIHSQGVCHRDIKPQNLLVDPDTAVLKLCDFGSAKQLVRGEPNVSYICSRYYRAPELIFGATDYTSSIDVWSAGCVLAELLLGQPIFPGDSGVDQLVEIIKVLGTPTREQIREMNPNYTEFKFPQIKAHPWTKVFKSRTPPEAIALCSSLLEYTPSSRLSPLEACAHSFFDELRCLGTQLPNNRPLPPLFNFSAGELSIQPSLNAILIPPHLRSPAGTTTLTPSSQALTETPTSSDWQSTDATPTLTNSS

[22] = Tmax in Sprague-Dawley rat at 20 mg/kg, po; format: ADME, organism-based; details: in vivo
[23] = Clearance in BALB/c mouse at 2 mg/kg, iv; format: ADME, organism-based; details: in vivo
[24] = AUC (0 to infinity) in BALB/c mouse at 2 mg/kg, iv; format: ADME, organism-based; details: in vivo
[25] = Half life in Sprague-Dawley rat at 2 mg/kg, iv; format: ADME, organism-based; details: in vivo
[26] = target: Homeodomain-interacting protein kinase 1 (Homo sapiens) (UniProt Q86Z02); experiment: Inhibition of HIPK1 (unknown origin) at 100 nM preincubated for 10 mins followed by substrate/ATP measured after 60 mins by ADP-Glo assay relative to control; details: time 70.0 min
Sequence of Homeodomain-interacting protein kinase 1 (Homo sapiens) (Q86Z02 whole entry, looked up): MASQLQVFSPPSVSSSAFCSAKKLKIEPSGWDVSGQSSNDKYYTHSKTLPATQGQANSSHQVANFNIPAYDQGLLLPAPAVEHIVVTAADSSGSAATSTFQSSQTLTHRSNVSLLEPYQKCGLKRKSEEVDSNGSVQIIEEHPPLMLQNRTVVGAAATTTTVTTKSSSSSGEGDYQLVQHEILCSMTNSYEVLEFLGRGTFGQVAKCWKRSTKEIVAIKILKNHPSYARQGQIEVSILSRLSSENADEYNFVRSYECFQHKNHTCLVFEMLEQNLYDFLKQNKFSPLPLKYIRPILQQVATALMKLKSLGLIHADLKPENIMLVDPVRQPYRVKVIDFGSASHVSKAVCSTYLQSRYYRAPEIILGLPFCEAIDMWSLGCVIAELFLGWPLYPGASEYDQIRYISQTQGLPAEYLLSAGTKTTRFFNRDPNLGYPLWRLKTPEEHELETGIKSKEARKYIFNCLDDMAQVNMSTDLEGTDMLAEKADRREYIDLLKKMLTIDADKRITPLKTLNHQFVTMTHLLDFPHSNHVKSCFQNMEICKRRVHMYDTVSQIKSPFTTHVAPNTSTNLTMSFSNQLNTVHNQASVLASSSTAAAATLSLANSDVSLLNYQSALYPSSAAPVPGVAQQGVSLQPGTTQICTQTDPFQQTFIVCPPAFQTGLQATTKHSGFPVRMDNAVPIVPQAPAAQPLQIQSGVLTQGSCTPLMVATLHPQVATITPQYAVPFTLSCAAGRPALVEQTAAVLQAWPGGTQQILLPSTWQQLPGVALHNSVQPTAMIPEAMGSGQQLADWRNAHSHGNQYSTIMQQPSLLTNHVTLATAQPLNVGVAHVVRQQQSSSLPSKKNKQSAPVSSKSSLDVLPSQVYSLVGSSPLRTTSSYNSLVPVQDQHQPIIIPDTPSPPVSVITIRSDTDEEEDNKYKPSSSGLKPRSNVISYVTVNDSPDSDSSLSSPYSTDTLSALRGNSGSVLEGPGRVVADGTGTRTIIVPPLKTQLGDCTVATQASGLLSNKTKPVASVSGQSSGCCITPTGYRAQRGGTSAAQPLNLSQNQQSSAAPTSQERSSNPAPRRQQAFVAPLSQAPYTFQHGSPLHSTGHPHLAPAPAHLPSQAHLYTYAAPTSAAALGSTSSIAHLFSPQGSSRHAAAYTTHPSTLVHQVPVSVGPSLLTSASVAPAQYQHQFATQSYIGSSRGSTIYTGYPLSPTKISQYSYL

[27] = Oral bioavailability in BALB/c mouse at 15 mg/kg; format: ADME, organism-based; details: in vivo
[28] = AUC (0 to infinity) in BALB/c mouse at 15 mg/kg, po; format: ADME, organism-based; details: in vivo
[29] = tested on: Osimertinib-resistant NCI-H1975 cell; experiment: Induction of apoptosis in human Osimertinib-resistant NCI-H1975 cells assessed as late apoptotic cells at 0.5 uM incubated for 16 hrs by Annexin V-FITC/PI staining based flow cytometry (reference value: 1.42 %); format: functional
16HBE14o- = experiment: Anti-proliferative activity against human 16-HBE cells assessed as cell inhibition measured after 72 hrs by MTT assay; format: functional, cell-based
[30] = tested on: Osimertinib-resistant HCC827 cell; experiment: Inhibition of chromosome organisation in human Osimertinib-resistant HCC827 cells by KEGG analysis; format: functional, cell-based
[31] = AUC (0 to infinity) in Sprague-Dawley rat at 2 mg/kg, iv; format: ADME, organism-based; details: in vivo
[32] = C0 in BALB/c mouse at 2 mg/kg, iv; details: in vivo
[33] = target: Cyclin-dependent kinase 2/cyclin E1 (Homo sapiens) (UniProt P24864+P24941); experiment: Inhibition of CDK2/cyclin E1 (unknown origin) at 100 nM preincubated for 10 mins followed by substrate/ATP measured after 60 mins by ADP-Glo assay relative to control; format: protein-complex assay; details: time 70.0 min
[34] = tested on: Osimertinib-resistant NCI-H1975 cell; experiment: Inhibition of colony formation in human Osimertinib-resistant NCI-H1975 cells at 25 nM measured after 14 days by crystal violet staining based analysis relative to control; format: functional; details: 336 h, time 14 day
[35] = tested on: Lung adenocarcinoma organoid; experiment: Anti-tumor activity against Osimertinib-resistant patient (#0416)-derived human Lung adenocarcinoma organoid assessed as inhibition of cell viability measured after 96 hrs; format: functional, tissue-based; details: Neoplasm

## CC(=O)N1CCC(NC(=O)c2ccc3cc2OCCCCCCOc2cc(ccc2F)-c2nc(ncc2F)N3)CC1
[1]
  inhibition: 82.5%
[2]
  IC50: 63.9 nM
[3]
  Tmax: 33.6 min
[4]
  Vd: 30.7 L/kg
[5]
  Activity: Non-toxic
[6]
  IC50: 170 nM
[7]
  inhibition: Active
[8]
  Activity: Active
[9]
  IC50: 121 nM
[10]
  inhibition: Active
[11]
  IC50: < 50 nM
[12]
  inhibition: Active
NCI-H1975 [13]
  inhibition in vivo at 30 mg/kg: 52.5%
NCI-H1975 [14]
  IC50: 29.7 nM
[15]
  Activity: Non-toxic
[16]
  half-life: 39.3 min
[17]
  inhibition: Active
[18]
  Activity: Non-toxic
[19]
  IC50: 31.6 nM
[20]
  IC50: 12.3 nM
[21]
  inhibition: 97.5%
[22]
  Tmax: 49.8 min
[23]
  clearance: 83.3 mL/min/kg
[24]
  AUC(0-inf): 396 ng·h/mL
[25]
  half-life: 94.2 min
[26]
  inhibition: 88.5%
[27]
  bioavailability: 25.8%
[28]
  AUC(0-inf): 766 ng·h/mL
[29]
  Activity: 10%
16HBE14o-
  IC50: 480 nM
[30]
  inhibition: Active
[31]
  AUC(0-inf): 2550 ng·h/mL
[32]
  C0: 1206.2 ng/mL
[33]
  inhibition: 50.2%
[34]
  inhibition at 0.025 µM: 100%
[35]
  IC50: < 10 nM
